Holding throughout (assay): inhibition of tumour cell growth, NCI panel, 48 h
The test system of assay [1] is SN12C renal.
For assay [2], the system named is MDA-MB-435.
Assay [3] concerns SK-MEL-28 melanoma.
The subject of assay [4] is HS 578T breast.
Assay [5] relates to EKVX NSCLC.
Assay [6] has as its system UACC-257 melanoma.
The subject of assay [7] is PC-3 prostate.
Assay [8] deals with RXF 393 renal.
Assay [9] relates to MDA-N.
Assay [10] relates to NCI-H522 lung.

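Values below derive from 48-hour exposures of cells grown in 96-well plates, with endpoints linearly interpolated between the two concentrations bracketing the appropriate inhibition level. TGI denotes the concentration required for complete inhibition of growth.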 *1 amine or outer side, *2 acyl side, *3 side chain or, on linkers, in order; H or OH if unused. Where a SMILES comes first, the peptide text is derived from it. [ ]: non-standard residue; d: D form. The star is where a group is joined. ξ: configuration not given here. NMeY = CN[C@@H](Cc1ccc(O)cc1)C(=O)O; Ethylenediamine = C(CN[*:2])N[*:1]; ξNMeL = CNC(CC(C)C)C(=O)O; Cbz = O=C(OCc1ccccc1)*; Lac = C[C@H](O)C(=O)O; ξA = CC(N)C(=O)O

Regarding `CCOc1ccccc1NC(=O)C(=O)C(/C(=N/N)C(=O)OC)c1nc2ccc([N+](=O)[O-])cc2[nH]c1=O` (stereo not given), the TGI in assay [1], in assay [2], in [3], in [4], in [5] and in assay [6] was more than 100 µM in each case. Further, the TGI in [7], in assay [8], in assay [9] and in assay [10] was more than 100 µM each time.

As for `CC(C)=NNc1snnc1C(N)=O`, the TGI in assay [1], in [2], in assay [3], in assay [4], in [5] and in assay [6] was more than 100 µM throughout. The TGI in [7], in assay [8], in [9] and in assay [10] was more than 100 µM throughout.

On to `c1csc(-c2nccc3c2[nH]c2ccccc23)c1`, for which the TGI in [1] was 38.8 µM; in [2] it was 32.2 µM; in assay [3], 43 µM; in assay [4], more than 100 µM; in assay [5], 84.9 µM; in assay [6], 35.7 µM. In addition, the TGI came out at 61.3 µM in assay [7], 36.1 µM in [8], 35.4 µM in [9] and 41.5 µM in assay [10].

On to `CC1=NN(c2nc(N)nc(CSc3cc(Cl)c(C)cc3S(N)(=O)=O)n2)C(C)(C)C1`, for which the TGI in assay [1], in assay [2], in assay [3], in assay [4], in assay [5] and in [6] was more than 10 µM in each case. The TGI in [7], in assay [8], in assay [9] and in assay [10] was more than 10 µM throughout.

With `CSc1nc(Nc2ccccc2Cl)c2c(N)nn(C)c2n1`, the TGI in assay [1], in assay [2], in assay [3], in assay [4], in [5] and in assay [6] was more than 100 µM each time. Further, the TGI in assay [7], in assay [8], in [9] and in assay [10] was more than 100 µM throughout.

For the compound `CNCCN[C@@H]1c2cc3c(cc2[C@@H](c2cc(OC)c(O)c(OC)c2)[C@H]2C(=O)OC[C@@H]21)OCO3`, the TGI came to 0.793 µM in assay [1]; 6.32 µM in [2]; 3.31 µM in assay [3]; 1.34 µM in assay [4]; 22.7 µM in assay [5]; 7.61 µM in assay [6]. Further, the TGI is more than 41 µM in [7], 0.747 µM in assay [8], 3.26 µM in assay [9] and 1.93 µM in assay [10].

Regarding `COc1ccc(/C=C2\C[C@H]3[C@@H]4CC=C5C[C@@H](OC(C)=O)CC[C@]5(C)[C@H]4CC[C@]3(C)\C2=N\O)cc1OC`, the TGI in assay [1] is more than 100 µM; in assay [2], more than 100 µM; in assay [3] it was more than 100 µM; in [4], more than 100 µM; in assay [5], 27.2 µM; in assay [6] it was more than 100 µM. Further, the TGI in [7], in assay [8], in assay [9] and in [10] was more than 100 µM each time.

In the case of `COc1ccc(C[C@@H](C(=O)NCCNC(=O)C(CC(C)C)N(C)C(=O)[C@@H]2CCCN2C(=O)[C@H](C)O)N(C)C(=O)[C@@H]2CCCN2C(=O)[C@H](CC(C)C)NC(=O)C(C)NC(=O)OCc2ccccc2)cc1` (stereo not given in full) (Cbz-[ξA]LP[NMeY](Me)-{Ethylenediamine-ξNMeL-Pro-Lac}), the TGI in assay [1], in assay [2], in assay [3], in assay [4], in [5] and in assay [6] was more than 100 µM each time. Further, the TGI in [7], in [8], in [9] and in assay [10] was more than 100 µM in each case.

Turning to `CC(C)(C)c1cc2c(c(C(C)(C)C)c1O)CC(=O)O2`, the TGI in [1] was more than 100 µM; in assay [2], 66 µM; in [3] it was more than 100 µM; in [4] it was 97.3 µM; in assay [5] it was more than 100 µM; in [6], 75.7 µM. The TGI in assay [7] is 76.1 µM; in assay [8], 54.5 µM; in assay [9], more than 100 µM; in [10], more than 100 µM.

For `Cc1cc(S(=O)(=O)Nc2nnc3c4ccccc4cnn23)c(S)cc1Cl`, the TGI is more than 100 µM in assay [1]; more than 100 µM in [2]; more than 100 µM in [3]; more than 89 µM in [4]; more than 100 µM in [5]; more than 100 µM in assay [6]. In addition, the TGI in assay [7], in assay [8], in [9] and in [10] was more than 100 µM each time.

The record behind these values is PubChem BioAssay (NCI).
